Experimental data published in patent US20050112131A1, “Methods of adjuvant photodynamic therapy to enhance radiation sensitization” (priority 2002, published 2005).

Assays:
RIF-1 tumors [1] = experiment: Tumor oxygen by EPR oximetry at different irradiances; format: in vivo, mice; conditions: light 3 hours post-injection; for tumor pO2 levels during treatment, low irradiance: 50 mW/cm^2 verteporfin, 30 mW/cm^2 ALA-PPIX; for tumor pO2 levels during treatment, high irradiance: 200 mW/cm^2 verteporfin, 150 mW/cm^2 ALA-PPIX
Method: Tumor oxygen changes were measured in mice treated either with aminolevulinic acid-induced protoporphyrin IX (ALA-PPIX) or verteporfin. Using electron paramagnetic resonance (EPR) oximetry described in Example 1, two irradiance levels were performed three hours post-injection of verteporfin or ALA-PPIX. Irradiance levels for ALA-PPIX were 30 mW/cm^2 and 150 mW/cm^2, whereas 50 mW/cm^2 and 200 mW/cm^2 were used for verteporfin.
EPR oximetry measured tumor oxygenation in RIF-1 tumor cells and in tumorigenic mice treated with photodynamic therapy, using synthetic lithium phthalocyanine (LiPc) as the oxygen-sensitive EPR material. Small particles between 50 and 200 μm in size were implanted into the animal tumors by 23-gauge needle at a depth of 1-3 mm within the tumor. Injections of LiPc were performed at least 24 hours prior to photodynamic therapy. Mice were placed in an L-band (1.2 GHz) EPR spectrometer with a microwave bridge that was custom-built for small animal experiments involving measurement of tissue pO2. Each mouse was anesthetized and placed in the EPR resonator for continuous measurement of the tumor tissue pO2 in 15-minute intervals. The external loop resonator was positioned over the tumor to record the EPR signal of injected LiPc within the tissue. Line widths of the EPR signal were converted to pO2 using a calibration curve determined for LiPc. The data were fit with a software program to match the Voigt line shape after the line widths were graphed as a function of time before, during, and after treatment.

RIF-1 tumors [2] = experiment: Tumor pO2 by Eppendorf electrode after ALA photodynamic therapy; format: in vivo, mice
Method: To independently confirm the results described above in ALA-PPIX-treated animals, Eppendorf pO2 electrode measurements were performed in the same tumor model. Two sections of animals with tumors were irradiated for 45 minutes. The first group of animals received ALA-injections 3 hours prior to light irradiation at a concentration of 100 mg/kg, and the second group received light alone. The light was at a wavelength of 633 nm, at a fluence of 150 mW/cm^2. Measurements were taken from the tumors immediately after the light was turned off. […] Collected data were pooled from three tracks in each animal with seven control animals (FIG. 7A) and 6 treated animals (FIG. 7B). The median pO2 for the control group was 3.7 mm Hg, while the median for the treated group was 8.7 mm Hg. Clearly, significant increases in tumor oxygenation occurred after treatment.

RIF-1 tumors [3] = experiment: Tumor pO2 by EPR oximetry during verteporfin photodynamic therapy; format: in vivo, mice
Method: Measurements of tumor partial pressure of oxygen (pO2) were taken in mice that harbored tumors derived from injection of transformed cells. Radiation-induced fibrosarcoma (RIF-1) cells were used for in vivo studies. RIF-1 cells were obtained from the National Cancer Institute (NCI) and originated from the laboratory of James B. Mitchell. The cells were grown in culture in RPMI 1640 cell culture medium, supplemented with 10% fetal bovine serum (FBS), L-glutamine, and appropriate antibiotics. The cells were not passaged more than four times from the original stock. Cell cultures were scaled up to large culture flasks, then removed and resuspended in medium lacking FBS and injected at 4×10^6 cells/mouse in a 50 μl volume. Intradermal injection delivered the cancer cells into the upper right leg of female C3h/HeJ mice (age 5-6 weeks) approximately 11-14 days before the anticipated treatment time.
Verteporfin was obtained from QLT Phototherapeutics Inc. (Vancouver, BC, Canada) for use as photosensitizer. The photoactive molecule is a benzoporphyrin derivative mono-acid ring ‘A’ (BPD-MA), which was suspended in a lipid preparation comprising 1.77% of BPD-MA and the remaining 98.23% composed of the lipids. Verteporfin was reconstituted in phosphate buffered saline (PBS) at a final concentration of 0.2 mg BPD-MA/ml, then injected into mice lateral tail vein to deliver a dose of 1 mg BPD-MA per kg of body weight. The drug was allowed to incubate for varying times prior to light exposure.
A diode laser system with 200 mW average power was used, at a wavelength of 690 nm (Applied Optronics, South Plainfield, Conn.). The beam was delivered to the tumor site in animals through a 140 μm fiber-optic, and was expanded onto the tumor in a circular top-hat beam, using a fiber-optic collimator (Thor Labs, North Newton, N.J.). The beam diameter for in vivo experiments was 1.1 cm, producing an irradiance of 200 mW/cm^2. Light treatment was given transcutaneously with shaven animals.
Animals were anesthetized by isoflurane at a concentration of 1.5% mixed with 26% oxygen in a continuous flow, delivered by inhalation. The animal was maintained at 37° C. on a heated water pad. Warm air was allowed to flow over the animal. In the first treatment group, tumors were exposed to light three hours after verteporfin injection. The second group received light only 15 minutes after injection. These animals were monitored for tumor pO2 before, during, and after treatment. The second experimental group is thought to be indicative of eliciting a vascular occlusion response, and contrasts effects from 3-hour photosensitizer incubation. The third group received light without prior photosensitizer injection.
Tumor pO2 was monitored with an oxygen-sensitive electron paramagnetic resonance (EPR) probe material, synthetic lithium phthalocyanine (LiPc), which was implanted into tissue and allowed for stable measurements of tissue pO2 over several weeks. […] LiPc molecules between 50 and 200 μm in diameter were implanted into the animal tumors with a 23-gauge needle at least 24 hours before photodynamic therapy, allowing for resolution of acute fluctuations in pO2 due to injection. The particles were implanted at a depth of 1-3 mm within the tumor.
The animals were placed in an L-band (1.2 GHz) EPR spectrometer with a custom-made microwave bridge for measurements of tissue pO2. The external loop resonator was positioned over the tumor to record the EPR signal of the LiPc from within the tissue. […]

RIF-1 cells [4] = experiment: Cell viability (MTS assay) after in vitro photodynamic therapy; format: cell-based, mouse; conditions: 1 μg/ml BPD, 3-hour incubation, maximal light dose, MTS 24 hours after treatment
Method: RIF-1 cells were plated three days prior to treatment in black, plastic 96-well plates with a transparent bottom (Fisher Scientific, Springfield, N.J.) at a density of 5000 cells/200 μl medium/well. After 3 days of growth in 5% CO2 at 37° C. in a humidified incubator, the cells were used in photodynamic therapy. On the day of treatment, the medium was replaced with 100 μl/well of medium with 1 μg/ml BPD in the verteporfin preparation. After a 3-hour incubation, the BPD solution was removed and rinsed once with Hanks Balanced Salt Solution (HBSS), then 100 μl of fresh medium was added to the wells. Cells were irradiated in groups of four wells, with blank wells between the treated groups to ensure that each group of wells received the correct dose of light. […]
Surviving cells were assayed 24 hours after treatment, using the MTS assay kit (CellTiter 96®AQueous, Promega, Madison, Wis.). […] After incubation for 1 h at 37° C., the absorbance of the formazan product at […] was measured directly in an automated plate reader (ThermoMax, Molecular Devices, Menlo Park, Calif.). The quantity of formazan product as measured by the amount of 490 nm absorbance units is directly proportional to the number of living cells in culture, and absorbance values from groups of wells that received the same light dose were averaged. […]

RIF-1 cells [5] = experiment: In vitro cellular oxygen consumption rate by EPR oximetry; format: cell-based, mouse; conditions: 1 μg/ml BPD, 3-hour incubation
Method: RIF-1 cells were plated three days prior to treatment in black, plastic 96-well plates with a transparent bottom (Fisher Scientific, Springfield, N.J.) at a density of 5000 cells/200 μl medium/well. After 3 days of growth in 5% CO2 at 37° C. in a humidified incubator, the cells were used in photodynamic therapy. On the day of treatment, the medium was replaced with 100 μl/well of medium with 1 μg/ml BPD in the verteporfin preparation. After a 3-hour incubation, the BPD solution was removed and rinsed once with Hanks Balanced Salt Solution (HBSS), then 100 μl of fresh medium was added to the wells. Cells were irradiated in groups of four wells, with blank wells between the treated groups to ensure that each group of wells received the correct dose of light. In each 96-well plate, squares of 4 were treated with increasing light doses with 8 groups/plate, including the control, non-irradiated group. Surviving cells were assayed for viability and/or cellular oxygen consumption.
Immediately following photodynamic therapy, cells were trypsinized, suspended in fresh medium, and cell viability determined by trypan blue dye exclusion prior to use in oxygen consumption measurement. […] The rate of oxygen consumption was measured using EPR. […] A Bruker EMX EPR spectrometer measured all spectra, operating at 9 GHz. […] The slope of the obtained data was determined by linear regression. […]

RIF-1 tumors [6] = experiment: Tumor regrowth assay, photodynamic therapy alone or combined with radiation; format: in vivo, mice
Method: The combination effect of photodynamic therapy and radiation therapy was examined in in vivo tumor models. Injection of PBD or saline (control) was given 3 hours prior to irradiation in all animals. Light at 690 nm wavelength was delivered t the photodynamic therapy treated animals while the animal was positioned in the irradiator cone. An irradiance of 133 mW/cm^2 was used for a total of 12 minutes, for a total dose of 100 J/cm^2. Radiation was administered at a single dose of 10 Gy (300 keV, 10 mA, HVL=2.33 Gy/min). The following groups were organized: (1) sham-irradiated controls, (2) radiation treatment alone, (3) photodynamic therapy alone, (4) radiation treatment followed by photodynamic therapy, and (5) photodynamic therapy with simultaneous radiation treatment. In Group 4, X-ray radiation was administered for the full 3-minute treatment period after the photosensitizer was injected and incubated in the animal for 3 hours, then irradiation was given for 12 minutes. The Group 5 animals received irradiation 3 hours after drug injection, and during the last three minutes of the irradiation. X-ray irradiation was also given to the tumor at the same time.
Irradiation using the 10 Gy dose using approximately 300 keV was delivered in 3 minutes from a Pantak Therapax 300 orthovoltage irradiator, using a 2 cm collimation cone. This cone was contacted with a region of the mouse leg surrounding the tumor. The end of the collimation cone was comprised of transparent plastic, allowing radiation and treatment to occur at the same time (required for Group 5, where photodynamic therapy and radiation were simultaneously administered). All animals were treated with the cone in place, as well as Group 1 sham-irradiated mice and Group 3 photodynamic therapy alone mice. This was performed to ensure equal doses of light were given to all groups, which included changes in the beam from reflection and refraction through the irradiator cone.
Each group of mice were assayed for tumor regrowth following combined radiation/photodynamic therapy, radiation alone, or photodynamic therapy alone. The resulting treatment effect was assayed by calculation of tumor volume, as calculated by measurement of the three major axis dimensions: Volume≅Length×Width×Height/2 The time for a tumor to reach double its volume on the day of treatment was calculated for each individual animal separately, by estimating the data by a linear fit to logarithmic growth curves versus time. The average values from these times to double in volume were determined for each group of mice. Analysis of the tumor regrowth data, estimates of the mean double time (including standard deviation), and mice heterogeneity was achieved by generating individual growth curve data and fitting with a mixed effect model. It was assumed that after day 3, the tumor re-grows exponentially, which corresponds to a linear function when plotted on a semi-logarithmic graph. The time for a tumor to reach double its volume on the day of treatment was calculated for each group along with the respective standard deviation. The standard error gives rise to the group comparison using X-test to account for significant differences between the mean values of the different treatment groups.

[7] = Group 4, radiation (10 Gy) then PDT
[8] = Group 5, PDT with simultaneous radiation (10 Gy)

Molecule: NCC(=O)CCC(=O)O [ALA, 5-aminolevulinic acid]
- tumor pO2 levels during treatment, low irradiance (RIF-1 tumors [1]): remained the same
- tumor pO2 levels during treatment, high irradiance (RIF-1 tumors [1]): a measurable drop in oxygen
- median tumor pO2 immediately after light (RIF-1 tumors [2]; 100 mg/kg ALA 3 hours prior to 633 nm light, 150 mW/cm^2 for 45 minutes, light-only control median 3.7): 8.7 mm Hg
- increase in tumor oxygenation (RIF-1 tumors [2]; EPR oximetry and Eppendorf electrode, treated vs control): more than two-fold increases

Molecule: benzoporphyrin derivative mono-acid ring ‘A’ (BPD-MA) [Verteporfin]
- tumor pO2 at 1 h post-treatment (RIF-1 tumors [3]; 1 mg/kg BPD-MA i.v., light 3 hours after injection): returned to within control, or pre-treatment values
- final tumor pO2 immediately after treatment (RIF-1 tumors [3]; 1 mg/kg BPD-MA i.v., light 3 hours after injection, 690 nm, 144 J/cm^2, p=0.048 vs control): 15.2±6.9 mm Hg
- initial tumor pO2 (RIF-1 tumors [3]; 1 mg/kg BPD-MA i.v., light 3 hours after injection, value before light): 2.8±1.0 mm Hg
- average tumor pO2 prior to light exposure (RIF-1 tumors [3]; 1 mg/kg BPD-MA injected 15 min prior to irradiation): 6.8±1.6 mm Hg
- average tumor pO2 immediately following treatment (RIF-1 tumors [3]; 1 mg/kg BPD-MA injected 15 min prior to irradiation (vascular targeting)): 4.1±0.3 mm Hg
- cell survival (RIF-1 cells [4]): 20±5%
- oxygen consumption rate (RIF-1 cells [5]; highest light dose 16 J/cm^2): 0.37±0.04 mmol/min/10^6 cells
- oxygen consumption as % of control oxygen consumption rates (RIF-1 cells [5]; maximal light dose): 21±4%
- Re-growth Delay in Doubling Time (RIF-1 tumors [6]; Group 3, PDT only): 3.2 ± 1.7
- slope of the natural logarithm of tumor volume versus days (RIF-1 tumors [6]; Group 3, PDT only): 0.13
- Time for Tumor to Double Initial Volume (RIF-1 tumors [6]; Group 3, PDT only, injection 3 hours before 690 nm light, 100 J/cm^2): 8.9 ± 1.7
- Re-growth Delay in Doubling Time (RIF-1 tumors [6]; [7]): 5.4 ± 1.4
- Time for Tumor to Double Initial Volume (RIF-1 tumors [6]; [7]): 11.0 ± 1.5
- slope of the natural logarithm of tumor volume versus days (RIF-1 tumors [6]; Group 4, radiation then PDT): 0.13
- slope of the natural logarithm of tumor volume versus days (RIF-1 tumors [6]; Group 5, PDT with simultaneous radiation): 0.11
- Re-growth Delay in Doubling Time (RIF-1 tumors [6]; [8]): 8.1 ± 1.5
- Time for Tumor to Double Initial Volume (RIF-1 tumors [6]; [8]): 13.7 ± 1.6
- tumor pO2 levels during treatment, low irradiance (RIF-1 tumors [1]): remained the same
- tumor pO2 levels during treatment, high irradiance (RIF-1 tumors [1]): remained the same
